Numbers after ± are expanded uncertainties.
Experiment: activity coefficient (dimensionless); of the first substance listed, at infinite dilution; xn = mol fraction of the nth substance listed
Settings: 101 kPa, Liquid, Chromatography, x1 = 0

| SMILES | activity coefficient (318.15 K) | activity coefficient (328.15 K) | activity coefficient (338.15 K) | activity coefficient (348.15 K) | activity coefficient (358.15 K) | activity coefficient (368.15 K) |
| --- | --- | --- | --- | --- | --- | --- |
| CCCCCCCCCC [decane] + COCC[N+]1(C)CCCCC1.O=S(=O)([N-]S(=O)(=O)C(F)(F)F)C(F)(F)F | 73.9 ± 3.5 | 66.5 ± 3.1 | 59.5 ± 2.8 | 53.7 ± 2.5 | 48.8 ± 2.3 | 45 ± 2.1 |
| CCOCC [diethyl ether] + COCC[N+]1(C)CCCCC1.O=S(=O)([N-]S(=O)(=O)C(F)(F)F)C(F)(F)F | 2.6 ± 0.18 | 2.59 ± 0.18 | 2.58 ± 0.18 | 2.58 ± 0.18 | 2.57 ± 0.17 | 2.56 ± 0.17 |
| CC(C)OC(C)C [diisopropyl ether] + COCC[N+]1(C)CCCCC1.O=S(=O)([N-]S(=O)(=O)C(F)(F)F)C(F)(F)F | 6.13 ± 0.42 | 6.03 ± 0.41 | 5.94 ± 0.4 | 5.84 ± 0.4 | 5.76 ± 0.39 | 5.69 ± 0.39 |
| CCCOCCC [dipropyl ether] + COCC[N+]1(C)CCCCC1.O=S(=O)([N-]S(=O)(=O)C(F)(F)F)C(F)(F)F | 6.45 ± 0.44 | 6.28 ± 0.43 | 6.13 ± 0.42 | 5.98 ± 0.41 | 5.86 ± 0.4 | 5.75 ± 0.39 |
| CCO [ethanol] + COCC[N+]1(C)CCCCC1.O=S(=O)([N-]S(=O)(=O)C(F)(F)F)C(F)(F)F | 1.73 ± 0.12 | 1.58 ± 0.1 | 1.45 ± 0.1 | 1.33 ± 0.09 | 1.24 ± 0.08 | 1.16 ± 0.07 |
| CCOC(C)=O [ethyl acetate] + COCC[N+]1(C)CCCCC1.O=S(=O)([N-]S(=O)(=O)C(F)(F)F)C(F)(F)F | 0.916 ± 0.058 | 0.932 ± 0.059 | 0.948 ± 0.06 | 0.963 ± 0.061 | 0.975 ± 0.061 | 0.989 ± 0.062 |
| CCc1ccccc1 [ethylbenzene] + COCC[N+]1(C)CCCCC1.O=S(=O)([N-]S(=O)(=O)C(F)(F)F)C(F)(F)F | 1.92 ± 0.13 | 1.93 ± 0.13 | 1.93 ± 0.13 | 1.94 ± 0.13 | 1.94 ± 0.13 | 1.95 ± 0.13 |
| CCCCCCC [heptane] + COCC[N+]1(C)CCCCC1.O=S(=O)([N-]S(=O)(=O)C(F)(F)F)C(F)(F)F | 24.5 ± 1.1 | 22.9 ± 1.1 | 21.2 ± 1 | 19.8 ± 0.9 | 18.4 ± 0.9 | 17.5 ± 0.8 |
| C=CCCCC [hex-1-ene] + COCC[N+]1(C)CCCCC1.O=S(=O)([N-]S(=O)(=O)C(F)(F)F)C(F)(F)F | 8.78 ± 0.6 | 8.38 ± 0.57 | 8.05 ± 0.55 | 7.69 ± 0.52 | 7.45 ± 0.51 | 7.22 ± 0.49 |
| CCCCCC [hexane] + COCC[N+]1(C)CCCCC1.O=S(=O)([N-]S(=O)(=O)C(F)(F)F)C(F)(F)F | 16.9 ± 0.8 | 16 ± 0.7 | 15.1 ± 0.7 | 14.2 ± 0.7 | 13.5 ± 0.6 | 13 ± 0.6 |
| CO [methanol] + COCC[N+]1(C)CCCCC1.O=S(=O)([N-]S(=O)(=O)C(F)(F)F)C(F)(F)F | 1.37 ± 0.09 | 1.26 ± 0.08 | 1.17 ± 0.07 | 1.08 ± 0.07 | 1 ± 0.06 | 0.942 ± 0.059 |
| CCCC(=O)OC [methyl butanoate] + COCC[N+]1(C)CCCCC1.O=S(=O)([N-]S(=O)(=O)C(F)(F)F)C(F)(F)F | 1.22 ± 0.08 | 1.23 ± 0.08 | 1.24 ± 0.08 | 1.25 ± 0.08 | 1.26 ± 0.08 | 1.27 ± 0.08 |
| COC(C)=O [methyl ethanoate] + COCC[N+]1(C)CCCCC1.O=S(=O)([N-]S(=O)(=O)C(F)(F)F)C(F)(F)F | 0.7 ± 0.047 | 0.714 ± 0.048 | 0.726 ± 0.048 | 0.74 ± 0.049 | 0.751 ± 0.049 | 0.763 ± 0.05 |
| CCC(=O)OC [methyl propanoate] + COCC[N+]1(C)CCCCC1.O=S(=O)([N-]S(=O)(=O)C(F)(F)F)C(F)(F)F | 0.888 ± 0.057 | 0.904 ± 0.057 | 0.92 ± 0.058 | 0.936 ± 0.059 | 0.95 ± 0.06 | 0.966 ± 0.061 |
| CC1CCCCC1 [methylcyclohexane] + COCC[N+]1(C)CCCCC1.O=S(=O)([N-]S(=O)(=O)C(F)(F)F)C(F)(F)F | 13.5 ± 0.6 | 12.7 ± 0.6 | 12 ± 0.6 | 11.2 ± 0.5 | 10.6 ± 0.5 | 10.2 ± 0.5 |
| CCCCCCCCC [nonane] + COCC[N+]1(C)CCCCC1.O=S(=O)([N-]S(=O)(=O)C(F)(F)F)C(F)(F)F | 50.8 ± 2.4 | 46.3 ± 2.2 | 42 ± 2 | 38.2 ± 1.8 | 35.1 ± 1.6 | 32.4 ± 1.5 |
| C=CCCCCCC [oct-1-ene] + COCC[N+]1(C)CCCCC1.O=S(=O)([N-]S(=O)(=O)C(F)(F)F)C(F)(F)F | 18.1 ± 1.2 | 17 ± 1.2 | 16.1 ± 1.1 | 15.1 ± 1 | 14.4 ± 1 | 13.8 ± 0.9 |
| CCCCCCCC [octane] + COCC[N+]1(C)CCCCC1.O=S(=O)([N-]S(=O)(=O)C(F)(F)F)C(F)(F)F | 35.4 ± 1.6 | 32.6 ± 1.5 | 30 ± 1.4 | 27.6 ± 1.3 | 25.6 ± 1.2 | 23.8 ± 1.1 |
| CCCC(C)=O [pentan-2-one] + COCC[N+]1(C)CCCCC1.O=S(=O)([N-]S(=O)(=O)C(F)(F)F)C(F)(F)F | 0.786 ± 0.051 | 0.801 ± 0.052 | 0.813 ± 0.053 | 0.825 ± 0.053 | 0.837 ± 0.054 | 0.849 ± 0.054 |
| CCC(=O)CC [pentan-3-one] + COCC[N+]1(C)CCCCC1.O=S(=O)([N-]S(=O)(=O)C(F)(F)F)C(F)(F)F | 0.785 ± 0.051 | 0.801 ± 0.052 | 0.821 ± 0.053 | 0.838 ± 0.054 | 0.852 ± 0.055 | 0.869 ± 0.056 |
| CCCCC [pentane] + COCC[N+]1(C)CCCCC1.O=S(=O)([N-]S(=O)(=O)C(F)(F)F)C(F)(F)F | 11.8 ± 0.5 | 11.3 ± 0.5 | 10.8 ± 0.5 | 10.3 ± 0.5 | 9.86 ± 0.45 | 9.48 ± 0.44 |
| CCCO [propan-1-ol] + COCC[N+]1(C)CCCCC1.O=S(=O)([N-]S(=O)(=O)C(F)(F)F)C(F)(F)F | 2.13 ± 0.14 | 1.93 ± 0.13 | 1.77 ± 0.12 | 1.61 ± 0.11 | 1.5 ± 0.1 | 1.4 ± 0.09 |
| CC(C)O [propan-2-ol] + COCC[N+]1(C)CCCCC1.O=S(=O)([N-]S(=O)(=O)C(F)(F)F)C(F)(F)F | 1.92 ± 0.13 | 1.76 ± 0.12 | 1.61 ± 0.11 | 1.47 ± 0.1 | 1.37 ± 0.09 | 1.28 ± 0.08 |
